Test results reported in patent US10851065B2 (Eisai R&D Management Co., Ltd., priority 2015, dated 2020).

Legend:
[1] = test system: MCF7-WT cells (MCF7 ER-alpha wildtype); experiment: In vitro proliferation (viability) assay, CellTiter-Glo, MCF7-WT cells; format: cell-based; details: Homo sapiens; MCF7-WT cells, 6 days, CTG vs day 0; mean ± SD-type spread (n); read-out: GI50 WT
Protocol: (§1) MCF7 BUS cells (Coser, et al., (2003) PNAS 100(24): 13994-13999) were maintained in Dulbecco's Modified Eagle Medium supplemented with 10% FBS, 4 mM L-glutamine and 1× non-essential amino acids. Lenti-X 293T cells (Clontech, Cat #632180) were routinely cultured in Dulbecco's Modified Eagle Medium supplemented with 10% FBS.
(§2) The QuikChange II XL Site-Directed Mutagenesis Kit (Agilent Technologies, Cat #200523) was used to generate Y537S, Y537C, Y537N and D538G mutations within the ERα exon 8. Wild-type ESR1 cDNA (GeneCopoeia Inc., Cat #GC-A0322, accession no. NM 000125) was used as a template with the following mutagenesis primers (where the underlined nucleotides represent site mutations); Y537S: F-AAGAACGTGGTGCCCCTCTCTGACCTGCTGCTGGAGATG (SEQ ID NO: 1), R-CATCTCCAGCAGCAGGTCAGAGAGGGGCACCACGTTCTT (SEQ ID NO: 2); Y537N: F-AAGAACGTGGTGCCCCTCAATGACCTGCTGCTGGAGATG (SEQ ID NO: 3), R-CATCTCCAGCAGCAGGTCATTGAGGGGCACCACGTTCTT (SEQ ID NO: 4); Y537C: F-AAGAACGTGGTGCCCCTCTGTGACCTGCTGCTGGAGATG (SEQ ID NO: 5), R-CATCTCCAGCAGCAGGTCACAGAGGGGCACCACGTTCTT (SEQ ID NO: 6); D538G: F-AACGTGGTGCCCCTCTATGGCCTGCTGCTGGAGATGCTG (SEQ ID NO: 7), R-CAGCATCTCCAGCAGCAGGCCATAGAGGGGCACCACGTT (SEQ ID NO: 8). WT and mutant ESR1 cDNAs were cloned into the designation lentiviral vector pLenti6.3/V5-Dest (Invitrogen, Cat #V533-06). To make lentivirus, DNAs (WT and mutant ESR1) were co-transfected with packaging plasmids into Lenti-X 293T cells using TransIT (Mirus, Cat #MIR 2700). 48 h post-transfection, virus containing media was filtered and added to MCF7 cells in the presence of 8 µg/ml polybrene overnight. Two days following infection, cells were placed under selection with 10 μg/ml blasticidin for 2 weeks for stable expression.
(§3) MCF7-WT and -Y537S cells were seeded at 1500 cells/well in black-walled 96-well plates (assay plates, Costar, Cat #3904). In parallel, cells were also seeded in a separate 96-well plate (8 wells/cell line, control plate) for which a CTG (CellTiter-Glo® Luminescent Viability Assay, Promega, Cat #G7572) was measured the following day (day 0 reading). The day 0 reading was used for the GI50 calculation at the termination of the experiment. The day following seeding, compounds were added to assay plates. Briefly, a 1:4 serial dilution was prepared in DMSO at 200× final concentration for a total of 10 concentrations (9 dilutions containing compound and one is DMSO only). Serially diluted compounds were pipetted into medium to prepare a compound-medium mix at 10× final concentration. 10 μl of compound-medium mix was added to MCF7-WT and -Y537S cells at 3 wells/concentration (triplicate for each concentration). On day 3, media/compound was removed and replaced with fresh media/compound as described above. On day 6, CTG was measured and compared to day 0 readings from control plate to assess GI50.

[2] = test system: MCF7-Y537S cells (MCF7 ER-alpha Y537S mutant); experiment: In vitro proliferation (viability) assay, CellTiter-Glo, MCF7-Y537S cells; format: cell-based; details: Homo sapiens; MCF7-Y537S cells, 6 days, CTG vs day 0; mean ± SD-type spread (n); read-out: GI50 MUT (Y537S)
Protocol: as §1, §2, §3

Compound | GI50 [1] [nM] | GI50 [2] [nM]
CC/C(=C(/c1ccc(OCCNC/C=C/C(=O)N(C)C)cc1)c1ccc2[nH]ncc2c1F)c1ccc(F)cc1Cl [Compound 57, (E)-4-((2-(4-((E)-2-(2-chloro-4-fluorophenyl)-1-(4-fluoro-1H-indazol-5-yl)but-1-en-1-yl)phenoxy)ethyl)amino)-N,N-dimethylbut-2-enamide] | 1.9 | 36.2
CCCN(C)C(=O)/C=C/CNCCOc1ccc(/C(=C(/CC)c2ccccc2)c2ccc3[nH]ncc3c2)cc1 [Compound 17, (E)-4-((2-(4-((E)-1-(1H-indazol-5-yl)-2-phenylbut-1-en-1-yl)phenoxy)ethyl)amino)-N-methyl-N-propylbut-2-enamide] | 2.18 | 25.2
CC/C(=C(/c1ccc(OCCNC/C=C/C(=O)N(C)C)cc1)c1ccc2[nH]nc(F)c2c1)c1ccc(F)cc1Cl [Compound 19, (E)-4-((2-(4-((E)-2-(2-chloro-4-fluorophenyl)-1-(3-fluoro-1H-indazol-5-yl)but-1-en-1-yl)phenoxy)ethyl)amino)-N,N-dimethylbut-2-enamide] | 1.58 | 18.6
CN(C)C(=O)/C=C/CNCCOc1ccc(/C(=C(\c2ccccc2)C2CCC2)c2ccc3[nH]ncc3c2)cc1 [Compound 13, (E)-4-((2-(4-((E)-2-cyclobutyl-1-(1H-indazol-5-yl)-2-phenylvinyl)phenoxy)ethyl)amino)-N,N-dimethylbut-2-enamide] | 2.08 ± 1.57 | 20 ± 13.7
CC/C(=C(/c1ccc(OCCNC/C(C)=C/C(=O)N(C)C)cc1)c1ccc2[nH]ncc2c1)c1ccccc1 [Compound 21, (E)-4-((2-(4-((E)-1-(1H-indazol-5-yl)-2-phenylbut-1-en-1-yl)phenoxy)ethyl)amino)-N,N,3-trimethylbut-2-enamide] | 26.6 ± 21.8 | 154 ± 51.7
CN(C)C(=O)/C=C/CNCCOc1ccc(/C(=C(\c2ccccc2)C2CCC2)c2ccc3[nH]ncc3c2F)cc1 [Compound 24, (E)-4-((2-(4-((E)-2-cyclobutyl-1-(4-fluoro-1H-indazol-5-yl)-2-phenylvinyl)phenoxy)ethyl)amino)-N,N-dimethylbut-2-enamide] | 1.05 ± 0.3 | 19.9 ± 3.58
O=C(/C=C/CNCCOc1ccc(/C(=C(\c2ccccc2)C2CCC2)c2ccc3[nH]ncc3c2)cc1)N1CCC1 [Compound 39, (E)-1-(azetidin-1-yl)-4-((2-(4-((E)-2-cyclobutyl-1-(1H-indazol-5-yl)-2-phenylvinyl)phenoxy)ethyl)amino)but-2-en-1-one] | 1.79 ± 0.47 | 31.8 ± 4.85
CC/C(=C(/c1ccc(OCCNC/C=C/C(=O)N(C)C)cc1)c1ccc2[nH]nc(F)c2c1)c1ccccc1Cl [Compound 73, (E)-4-((2-(4-((E)-2-(2-chlorophenyl)-1-(3-fluoro-1H-indazol-5-yl)but-1-en-1-yl)phenoxy)ethyl)amino)-N,N-dimethylbut-2-enamide] | 1.7 | 40.5
CC/C(=C(/c1ccc(OCCNC/C=C/C(=O)N(C)CCO)cc1)c1ccc2[nH]ncc2c1)c1ccccc1C [Compound 26, (E)-4-((2-(4-((E)-1-(1H-indazol-5-yl)-2-(o-tolyl)but-1-en-1-yl)phenoxy)ethyl)amino)-N-(2-hydroxyethyl)-N-methylbut-2-enamide] | 2.18 ± 0.87 | 32.5 ± 16.7
CC/C(=C(/c1ccc(OCCNC/C=C/C(=O)N(C)C)cc1)c1ccc2[nH]ncc2c1)c1ccc(F)c(F)c1 [Compound 6, (E)-4-((2-(4-((E)-2-(3,4-difluorophenyl)-1-(1H-indazol-5-yl)but-1-en-1-yl)phenoxy)ethyl)amino)-N,N-dimethylbut-2-enamide] | 2.93 ± 2.83 | 111 ± 124
CC/C(=C(/c1ccc(OCCNC/C=C/C(=O)N(C)C)cc1)c1ccc2[nH]nc(F)c2c1)c1cccc(F)c1 [Compound 44, (E)-4-((2-(4-((E)-1-(3-fluoro-1H-indazol-5-yl)-2-(3-fluorophenyl)but-1-en-1-yl)phenoxy)ethyl)amino)-N,N-dimethylbut-2-enamide] | 4.91 | 180
CN(C)C(=O)/C=C/CNCCOc1ccc(/C(=C(\c2ccccc2)C2CC2)c2ccc3[nH]ncc3c2)cc1 [Compound 56, (E)-4-((2-(4-((E)-2-cyclopropyl-1-(1H-indazol-5-yl)-2-phenylvinyl)phenoxy)ethyl)amino)-N,N-dimethylbut-2-enamide] | 3.78 ± 1.75 | 63.6 ± 18.4
CC/C(=C(/c1ccc(OC(C)(C)CNC/C=C/C(=O)N(C)C)cc1)c1ccc2[nH]ncc2c1)c1ccccc1 [Compound 99, (E)-4-((2-(4-((E)-1-(1H-indazol-5-yl)-2-phenylbut-1-en-1-yl)phenoxy)-2-methylpropyl)amino)-N,N-dimethylbut-2-enamide] | 2.7 | 81.4
CC/C(=C(/c1cnc(OCCNC/C=C/C(=O)N(C)C)nc1)c1ccc2[nH]ncc2c1)c1ccccc1 [Compound 38, (E)-4-((2-((5-((Z)-1-(1H-indazol-5-yl)-2-phenylbut-1-en-1-yl)pyrimidin-2-yl)oxy)ethyl)amino)-N,N-dimethylbut-2-enamide] | 8.23 ± 5.32 | 159 ± 128
CN(CCO)C(=O)/C=C/CNCCOc1ccc(/C(=C(\c2ccccc2)C2CCC2)c2ccc3[nH]ncc3c2)cc1 [Compound 41, (E)-4-((2-(4-((E)-2-cyclobutyl-1-(1H-indazol-5-yl)-2-phenylvinyl)phenoxy)ethyl)amino)-N-(2-hydroxyethyl)-N-methylbut-2-enamide] | 3.84 | 66.3
CC/C(=C(/c1ccc(OCCNC/C=C/C(=O)N(C)C)nc1)c1ccc2[nH]nc(F)c2c1)c1ccccc1 [Compound 68, (E)-4-((2-((5-((Z)-1-(3-fluoro-1H-indazol-5-yl)-2-phenylbut-1-en-1-yl)pyridin-2-yl)oxy)ethyl)amino)-N,N-dimethylbut-2-enamide] | 2.8 | 30.3
CC/C(=C(/c1ccc(OCCNC/C=C/C(=O)N(C)C)cc1)c1cc2c(F)n[nH]c2cc1F)c1ccccc1 [Compound 66, (E)-4-((2-(4-((E)-1-(3,6-difluoro-1H-indazol-5-yl)-2-phenylbut-1-en-1-yl)phenoxy)ethyl)amino)-N,N-dimethylbut-2-enamide] | 32.1 | 827
CN(C)C(=O)/C=C/CNCCOc1ccc(/C(=C(/CCCl)c2ccccc2)c2ccc3[nH]ncc3c2)cc1 [Compound 30, (E)-4-((2-(4-((E)-4-chloro-1-(1H-indazol-5-yl)-2-phenylbut-1-en-1-yl)phenoxy)ethyl)amino)-N,N-dimethylbut-2-enamide] | 2.74 ± 1.06 | 61.3 ± 9.98
C/C(=C(/c1ccc(OCCNC/C=C/C(=O)N(C)C)cc1)c1ccc2[nH]ncc2c1)c1ccccc1 [Compound 54, (E)-4-((2-(4-((E)-1-(1H-indazol-5-yl)-2-phenylprop-1-en-1-yl)phenoxy)ethyl)amino)-N,N-dimethylbut-2-enamide] | 7.97 ± 1.65 | 160 ± 39.6
CN(C)C(=O)/C=C/CNCCOc1ccc(/C(=C(\c2ccccc2)C2CCC2)c2ccc3[nH]nc(F)c3c2)cn1 [Compound 72, (E)-4-((2-((5-((Z)-2-cyclobutyl-1-(3-fluoro-1H-indazol-5-yl)-2-phenylvinyl)pyridin-2-yl)oxy)ethyl)amino)-N,N-dimethylbut-2-enamide] | 2 | 32.7
